System: c-myc P2 promoter
Assay: PCR-Stop assay with real time PCR on genomic DNA of drug-treated RKO colon cancer cells
Format: cell-based, human
Conditions: 10 ng/ml TSA 4 h followed by 25 μM VP16 1 h, compared to the reverse combination and the single drug treatments
From the text: Top2 inhibitors induce preferential damage within the c-myc locus and more particularly within the P2 promoter of c-myc. […] By way of non-limiting example, the 3′ end region may be amplified using the following primers of the human c-myc gene: Forward: 5′[…]3′ [SEQ ID NO: 1], Reverse: 5′[…]3′ [SEQ ID NO:2]. Other suitable primers may be used, as would be apparent to those skilled in the art.
According to example embodiments, a comparative threshold (Ct) method may be used to quantify the results obtained by the real-time RT-PCR. The comparative Ct method involves comparing the Ct values of the samples of interest with a control or calibrator such as a non-treated sample from normal tissue. The Ct values of both the calibrator and the samples of interest are normalized to an appropriate endogenous housekeeping gene. Non-limiting example quantification methods include identifying the cycle number at which the reporter dye emission intensities rises above background noise: this cycle number is called the threshold number (Ct). The Ct is proportional to the breaks introduced in the target template; the higher the amount of breakage in the given target template, the higher the Ct measured.
By way of non-limiting example, the 3′ region of c-myc gene that has no type II topoisomerase cleavage site may be used as a reference. […]

COc1cc([C@@H]2c3cc4c(cc3[C@@H](O[C@@H]3O[C@@H]5CO[C@@H](C)O[C@H]5[C@H](O)[C@H]3O)[C@H]3COC(=O)[C@H]23)OCO4)cc(OC)c1O [VP16, etoposide]
percentage of breaks at c-myc locus (type II topoisomerase mediated DNA breaks in c-myc P2 promoter): considerably higher percentage of breaks

Source: patent publication US8367340B2, “Prognostic tools to predict the efficacy of drug treatment targeting chromatin DNA or enzymes acting on DNA” (University of Maryland, Baltimore, priority 2008, dated 2013)
